# Measured values from PubChem BioAssay AID1549 (Sanford-Burnham Center for Chemical Genomics, 2009).
# The source made the active and inactive calls. How the calls were made is not given here.
# Molecular target: Influenza A virus M2 proton channel (A/TW/4845/1999 H1N1)
# Experiment: NMR binding screen, influenza A virus M2 proton channel, Kd (AID 1549)
# Settings: M2 protein
row,SMILES,Kd
1,Nc1ccccc1N=C1CNC(=O)C1,> 4 mM (inactive)
2,O=C(O)c1cncc(-c2cccs2)c1,> 4 mM (inactive)
3,NS(=O)(=O)c1ccc(NC(=S)NC2CC2)cc1,> 4 mM (inactive)
4,c1ccc(Cc2nnc(-c3ccccc3)o2)cc1,> 4 mM (inactive)
5,O=c1oc(-c2ccccc2)nc2c1cnn2-c1ccccc1,> 4 mM (inactive)
6,CC(C)(C)CC(=O)NC1=NCCS1,> 4 mM (inactive)
7,CCOC(=O)c1cnn2ccccc12,> 4 mM (inactive)
8,Cc1onc(-c2ccccc2)c1C(=O)Nc1ccncc1,> 4 mM (inactive)
9,Oc1ccc(C2SCCS2)cc1,> 4 mM (inactive)
10,CC(C)c1ccc2c(c1)CCC1C(C)(C(N)=O)CCCC21C (configuration not stated),> 4 mM (inactive)
11,Cc1c(F)cccc1NS(=O)(=O)c1ccccc1C#N,> 4 mM (inactive)
12,CSc1ncnc2nc[nH]c12,> 4 mM (inactive)
13,CCC(=O)Nc1cccc(NC(C)=O)c1,> 4 mM (inactive)
14,COC(=O)c1ccc2snnc2c1,> 4 mM (inactive)
15,Cc1cc(C(=O)N2CCN(c3ncccn3)CC2)c(C)o1,> 4 mM (inactive)
16,O=C(Nc1ccccc1Cl)c1cnccn1,> 4 mM (inactive)
17,COc1ccccc1-c1cn[nH]c(=S)n1,> 4 mM (inactive)
18,NC(=O)c1ccc2c(c1)OCO2,> 4 mM (inactive)
19,Nc1cccc2cccnc12,> 4 mM (inactive)
20,O=C(CSc1nc2ccccc2[nH]1)N1CCCCC1,> 4 mM (inactive)
21,N#Cc1nc(N2CCCCC2)nc(N2CCOCC2)n1,> 4 mM (inactive)
22,O=C(O)c1cc(=O)[nH]c2ccccc12,> 4 mM (inactive)

row,SMILES,Kd
1,Cc1cc([N+](=O)[O-])cc[n+]1[O-],> 4 mM (inactive)
2,Nc1ccc2c(c1)CCCC2=O,> 4 mM (inactive)
3,Cc1nc2ccc(F)cc2cc1C(=O)NCc1ccco1,> 4 mM (inactive)
4,O=C1CSC2=NCCCN12,> 4 mM (inactive)
5,CC1(C)C2C[C@@H](O)[C@]3(C)C(CC[C@@]4(C)[C@H](c5ccoc5)OC(=O)[C@H]5O[C@]543)[C@@]2(C)[C@@H](O)C[C@H]1O (some centres not stated),> 4 mM (inactive)
6,COc1ccc(C(=O)/C=C/c2ccccc2)cc1,> 4 mM (inactive)
7,Nc1cc(N)nc(SCc2ccccc2)n1,> 4 mM (inactive)
8,Cn1c(=O)c2[nH]cnc2n(C)c1=O,> 4 mM (inactive)
9,O=C(NCc1ccccn1)c1ccccc1Cl,> 4 mM (inactive)
10,Cc1cc(Cl)ccc1NC(=O)C(N)=O,> 4 mM (inactive)
11,NC(=O)COc1ccccc1O,> 4 mM (inactive)
12,O=C(c1ccco1)N1CCN(Cc2cccc(F)c2)CC1,> 4 mM (inactive)
13,C=C1CSc2nc(=O)c3c(C)c(C)sc3n21,> 4 mM (inactive)
14,O=C(O[C@@H]1Cc2c(O)cc(O)cc2O[C@@H]1c1cc(O)c(O)c(O)c1-c1c([C@H]2Oc3cc(O)cc(O)c3C[C@H]2O)cc(O)c(O)c1O)c1cc(O)c(O)c(O)c1,> 4 mM (inactive)
15,O=C(NC(=S)NC1CCSC1=O)c1ccco1 (configuration not stated),> 4 mM (inactive)
16,O=C(O)c1ccc2ncccc2c1,> 4 mM (inactive)
17,CC(=O)c1ccc(CC2SC(N)=NC2=O)cc1 (configuration not stated),> 4 mM (inactive)
18,CC1(O)CC2C=CC1C2 (configuration not stated),> 4 mM (inactive)
19,O=C(O)c1cccc(N2C(=O)C3CC=CCC3C2=O)c1 (configuration not stated),> 4 mM (inactive)
20,COc1ccc(NC(=O)/C=N/O)cc1,> 4 mM (inactive)
21,Cc1cc(C)n(-c2cccc3cccnc23)n1,> 4 mM (inactive)
22,Cc1ccc(C(C)C)cc2c(C)ccc1-2,> 4 mM (inactive)

row,SMILES,Kd
1,CC(=O)Nc1nnc(-c2ccccc2S(C)(=O)=O)o1,> 4 mM (inactive)
2,S=c1[nH]nc(-c2cccnc2)n1C1CCCCC1,> 4 mM (inactive)
3,O=c1/c(=C/c2cccs2)sc2ncnn12,> 4 mM (inactive)
4,O=C(O)c1cccnc1N1CCOCC1,> 4 mM (inactive)
5,O=C1CNCc2[nH]c3ccccc3c2N1c1ccccc1,> 4 mM (inactive)
6,CSc1ccccc1NC(=O)c1cnccn1,> 4 mM (inactive)
7,COc1ccc(C2(CN)CCOCC2)cc1OC,> 4 mM (inactive)
8,O=C(NN1CCOCC1)c1cccs1,> 4 mM (inactive)
9,O=C1CSC(=Nc2cccc(C(=O)O)c2)N1,> 4 mM (inactive)
10,CSc1ccccc1NC(=O)c1cccnc1,> 4 mM (inactive)
11,COCC(=O)Nc1ccc(C)c(Cl)c1,> 4 mM (inactive)
12,O=C(O)CNS(=O)(=O)c1cccs1,> 4 mM (inactive)
13,Cn1c(=O)c2[nH]c(Nc3ccccc3)nc2n(C)c1=O,> 4 mM (inactive)
14,Cc1cc(C(=O)Nc2sc(C)c(C)c2C#N)c(C)o1,> 4 mM (inactive)
15,NC(=O)CSc1nc2ccccc2c(=O)[nH]1,> 4 mM (inactive)
16,CC(C)C(=O)NCC(c1ccco1)N1CCOCC1 (configuration not stated),> 4 mM (inactive)
17,O=C1NC(=O)C(c2ccccc2)C(=O)N1,> 4 mM (inactive)
18,C[C@]12CCC(=O)C=C1CCC1C2C(=O)C[C@@]2(C)C1CC[C@]2(O)C(=O)CO (some centres not stated),> 4 mM (inactive)
19,CC(=O)Oc1cc(-c2coc3cc(OC(C)=O)c(OC(C)=O)c(OC(C)=O)c3c2=O)cc(OC(C)=O)c1OC(C)=O,> 4 mM (inactive)
20,Oc1ccc(-c2n[nH]c(=S)n2Cc2ccco2)cc1,> 4 mM (inactive)
21,CN1CCC(NC(=O)C2CCCO2)CC1 (configuration not stated),> 4 mM (inactive)
22,Cc1nc(N2CCOCC2)[nH]c(=O)c1C,> 4 mM (inactive)

row,SMILES,Kd
1,Cn1cc(Cl)c(C(=O)Nc2ccc(F)cc2F)n1,> 4 mM (inactive)
2,CCCc1nc2ccccc2c2nc(N)nn12,> 4 mM (inactive)
3,CCOC(=O)c1csc(N)n1,> 4 mM (inactive)
4,c1cnc(N2CCNCC2)nc1,> 4 mM (inactive)
5,O=C(O)c1cccc(CSc2ncccn2)c1,> 4 mM (inactive)
6,O=C(CC1Nc2ccccc2NC1=O)Nc1ccc(O)cc1 (configuration not stated),> 4 mM (inactive)
7,Cc1cc(=O)n2[nH]cnc2n1,> 4 mM (inactive)
8,COc1ccc(O)c(-c2cn[nH]c2-c2cccs2)c1,> 4 mM (inactive)
9,COc1cccc(NC(=O)c2nc3ncccn3n2)c1,> 4 mM (inactive)
10,C/C=C/C(=O)Nc1ccc(NC(C)=O)cc1,> 4 mM (inactive)
11,N#CCc1nc2ccccc2s1,> 4 mM (inactive)
12,CC(=O)c1cccc(NC2=NCC(C)(C)S2)c1,> 4 mM (inactive)
13,O=C(O)CCn1cncn1,> 4 mM (inactive)
14,O=C(O)c1cccc2c1OCCCO2,> 4 mM (inactive)
15,Cc1cc(NS(=O)(=O)Cc2ccccc2)no1,> 4 mM (inactive)
16,Cc1cc(SCC(=O)Nc2nccs2)nc(=O)[nH]1,> 4 mM (inactive)
17,CC(=O)O[C@@H]1C=C[C@@]2(C)C(C[C@@H](OC(C)=O)[C@@]3(C)C4=CC(=O)O[C@@H](c5ccoc5)[C@]4(C)CCC23)C1(C)C (some centres not stated),> 4 mM (inactive)
18,C=C1CCC2[C@](C)(CO)[C@H](O)CC[C@@]2(C)[C@@H]1C/C=C1/C(=O)OC[C@H]1O (some centres not stated),> 4 mM (inactive)
19,Cc1ccc(CCC(N)=O)o1,> 4 mM (inactive)
20,Cn1cnc([N+](=O)[O-])c1Sc1ncnc2nc[nH]c12,> 4 mM (inactive)
21,CC(=O)O[C@]1(C)CC[C@@]23CC1C(C)(C)[C@@H]2CC[C@H]3C,> 4 mM (inactive)
